Test results published in ChEMBL document CHEMBL4011592, “Synthesis and evaluation of 7-substituted-5,6-dihydrobenzo[c]acridine derivatives as new c-KIT promoter G-quadruplex binding ligands” (Eur J Med Chem, 2017).
Values belong to the compound of their own block, whether it stands above or below them. Activity calls are given as the source filed them. The rule behind the calls is not given here.

Legend:
Homo sapiens [1] = species: Homo sapiens; test: Binding affinity to c-KIT G-quadruplex DNA in human K562 cells assessed as reduction in c-KIT mRNA level at 0.5 uM after 48 hrs by RT-PCR analysis; format: cell-based
[2] = Binding affinity to c-KIT2 G-quadruplex DNA (unknown origin) assessed as ability to promote c-KIT G-rich sequences to form parallel G-quadruplex at 25 uM in absence of KCl measured after 10 mins by CD-spectroscopic analysis
[3] = Binding affinity to 5'-FAM/3'-TAMARA labelled c-KIT1 G-quadruplex DNA (unknown origin) assessed as change in melting temperature at 2 uM by FRET assay
[4] = Binding affinity to F10T duplex DNA (unknown origin) assessed as change in melting temperature at 2 uM by FRET assay
[5] = Binding affinity to 5'-FAM/3'-TAMARA labelled c-KIT1 G-quadruplex DNA (unknown origin) assessed as change in melting temperature at 1 uM by FRET assay
[6] = Binding affinity to 5'-FAM/3'-TAMARA labelled c-KIT2 G-quadruplex DNA (unknown origin) assessed as change in melting temperature at 1 uM by FRET assay
[7] = Binding affinity to F10T duplex DNA (unknown origin) assessed as change in melting temperature at 1 uM by FRET assay
[8] = Binding affinity to 5'-FAM/3'-TAMARA labelled c-KIT1 G-quadruplex DNA (unknown origin) assessed as change in melting temperature at 2 uM in presence ds26 DNA by FRET assay
[9] = Binding affinity to biotinylated c-KIT1 G-quadruplex DNA (unknown origin) by SPR assay
[10] = Binding affinity to biotinylated duplex DNA (unknown origin) by SPR assay
[11] = Selectivity ratio of Kd for biotinylated duplex DNA (unknown origin) to Kd for biotinylated c-KIT1 G-quadruplex DNA (unknown origin)
[12] = Binding affinity to 5'-FAM labelled c-KIT1 G-quadruplex DNA (unknown origin) by microscale thermophoresis
[13] = Binding affinity to 5'-FAM labelled duplex DNA (unknown origin) by microscale thermophoresis
[14] = Binding affinity to c-KIT1 G-quadruplex DNA (unknown origin) assessed as ability to promote c-KIT G-rich sequences to form parallel G-quadruplex at 25 uM in absence of KCl measured after 10 mins by CD-spectroscopic analysis
[15] = Binding affinity to c-KIT1 G-quadruplex DNA (unknown origin) assessed as maintainance of parallel c-KIT G-quadruplex conformation at 5 uM in presence of KCl measured after 10 mins by CD-spectroscopic analysis
[16] = Binding affinity to c-KIT2 G-quadruplex DNA (unknown origin) assessed as maintainance of parallel c-KIT G-quadruplex conformation at 5 uM in presence of KCl measured after 10 mins by CD-spectroscopic analysis
[17] = Binding affinity to c-KIT1 G-quadruplex DNA (unknown origin) assessed as hyperchromicity at 10 uM measured after 10 mins by UV-vis spectroscopic method
[18] = Binding affinity to c-KIT1 G-quadruplex DNA (unknown origin) assessed as red shift at 10 uM measured after 10 mins by UV-vis spectroscopic method
[19] = Binding affinity to c-KIT1 G-quadruplex DNA (unknown origin) assessed as isosbestic point at 10 uM measured after 10 mins by UV-vis spectroscopic method
[20] = Binding affinity to c-KIT1 G-quadruplex DNA (unknown origin) measured after 10 mins by UV-vis spectroscopic method
[21] = Binding affinity to c-KIT1 G-quadruplex DNA (unknown origin) assessed as hyperchromicity at 5 uM measured after 10 mins by fluorescence spectroscopic method
[22] = Binding affinity to c-KIT1 G-quadruplex DNA (unknown origin) assessed as 1:1 binding stoichiometry between compound and G-quadruplex DNA by Job's plot method
[23] = Binding affinity to c-KIT1 G-quadruplex DNA (unknown origin) assessed as 1:1 binding stoichiometry between compound and G-quadruplex DNA 10 uM by ESI-MS spectra analysis
K562 [24] = test: Cytotoxicity against human K562 cells after 48 hrs by MTT assay; format: functional, cell-based; conditions: K562, 48 h
A549 = test: Cytotoxicity against human A549 cells after 48 hrs by MTT assay; format: functional, cell-based; conditions: A549, 48 h
HeLa = test: Cytotoxicity against human HeLa cells after 48 hrs by MTT assay; format: functional, cell-based
BJ = test: Cytotoxicity against human BJ cells after 48 hrs by MTT assay; format: cell-based
K562 [25] = test: Induction of apoptosis in human K562 cells assessed as late apoptotic cells at 1 uM after 48 hrs by flow cytometric method (reference value: 0.1 %); format: functional
K562 [26] = test: Cytotoxicity against human K562 cells expressing c-KIT measured up to 3 days by Annexin V-FITC/propidium iodide staining based assay; format: functional, cell-based
K562 [27] = test: Induction of apoptosis in human K562 cells assessed as late apoptotic cells at 3 uM after 48 hrs by flow cytometric method (reference value: 0.1 %); format: functional
K562 [28] = test: Induction of apoptosis in human K562 cells assessed as late apoptotic cells at 6 uM after 48 hrs by flow cytometric method (reference value: 0.1 %); format: functional
K562 [29] = test: Induction of apoptosis in human K562 cells assessed as late apoptotic cells at 9 uM after 48 hrs by flow cytometric method (reference value: 0.1 %); format: functional
K562 [30] = test: Induction of apoptosis in human K562 cells assessed as increase in late apoptotic cells after 48 hrs by flow cytometric method; format: functional, cell-based
Homo sapiens [31] = species: Homo sapiens; test: Binding affinity to c-KIT G-quadruplex DNA in human K562 cells assessed as reduction in c-KIT mRNA level after 48 hrs by RT-PCR analysis; format: cell-based
Homo sapiens [32] = species: Homo sapiens; test: Binding affinity to c-KIT G-quadruplex DNA in human K562 cells assessed as reduction in c-KIT mRNA level at 9 uM after 48 hrs by RT-PCR analysis relative to control; format: cell-based; set-up: scale not given: the % may be the effect or the level left
Homo sapiens [33] = species: Homo sapiens; test: Binding affinity to c-KIT G-quadruplex DNA in human K562 cells assessed as reduction in c-KIT protein level after 48 hrs by Western blot analysis; format: cell-based
K562 [34] = test: Effect on total c-KIT protein level in human K562 cells at 9 uM after 48 hrs by Western blot analysis; format: ADME, cell-based; conditions: k562, 48 h
K562 [35] = test: Induction of apoptosis in human K562 cells assessed as increase in cleaved PARP level at 1 to 9 uM after 48 hrs by Western blot analysis; format: functional, cell-based
K562 [36] = test: Induction of apoptosis in human K562 cells assessed as upregulation of cleaved caspase-3 at 1 to 9 uM after 48 hrs by Western blot analysis; format: functional, cell-based
K562 [37] = test: Induction of apoptosis in human K562 cells assessed as increase in Bax expression after 48 hrs by Western blot analysis; format: functional, cell-based
K562 [38] = test: Induction of apoptosis in human K562 cells assessed as increase in Bad expression after 48 hrs by Western blot analysis; format: functional, cell-based
K562 [39] = test: Induction of apoptosis in human K562 cells assessed as decrease in Bcl-2 expression at 1 to 9 uM after 48 hrs by Western blot analysis; format: functional, cell-based

SMILES: Cc1ccc(NC(=O)c2ccc(CN3CCN(C)CC3)cc2)cc1Nc1nccc(-c2cccnc2)n1
Activity (Homo sapiens [1]): inactive

Activity [2]: Active | ΔTm [3]: 15.9 °C | ΔTm [4]: 1.2 °C | ΔTm [5]: 11.9 °C | ΔTm [6]: 5.4 °C | ΔTm [7]: 0.6 °C | Activity [8]: Active | Kd [9]: 4.7 µM | Kd [10]: > 20 µM | Selectivity ratio [11]: > 4.3 | Kd [12]: 1.5 µM | Kd [13]: 10.5 µM | Activity [14]: Active | Activity [15]: Active | Activity [16]: Active | Activity [17]: Active | Activity [18]: Active | Activity [19]: Active | Kd [20]: 3.3 µM | Activity [21]: Active | Activity [22]: Active | Activity [23]: Active
SMILES: CCN(CC)CCCNc1c2c(nc3ccccc13)-c1cc(OC)c(OC)cc1CC2
IC50 (K562 [24]): 9.2 µM | IC50 (A549): 5.7 µM | IC50 (HeLa): 3.2 µM | IC50 (BJ): 29.4 µM | Activity (K562 [25]): 1.8% | Activity (K562 [26]): Dose-dependent effect | Activity (K562 [27]): 3.6% | Activity (K562 [28]): 8.4% | Activity (K562 [29]): 64.8% | Activity (K562 [30]): Dose-dependent effect | Activity (Homo sapiens [31]): Dose-dependent effect | Activity (Homo sapiens [32]): 52% | Activity (Homo sapiens [33]): Dose-dependent effect | Activity (K562 [34]): Non-Toxic | Activity (K562 [35]): Active | Activity (K562 [36]): Active | Activity (K562 [37]): Dose-dependent effect | Activity (K562 [38]): Dose-dependent effect | Activity (K562 [39]): Active
